Test results published in patent publication US6476056B2, “Heterocycle substituted aryloxyaniline derivatives and their use as MDR ligands” (Taisho Pharmaceutical Co., Ltd., priority 1997, dated 2002).

Biological target: T1, MDR (Rattus norvegicus, UniProt P16257)
T1 construct: Crude mitochondria fractions prepared from rat cerebral cortex were used as a receptor sample; from tissue; host or cells: rat cerebral cortex, crude mitochondria fraction
Experiment: MDR receptor binding assay ([3H]PK11195 displacement)
Conditions: 50% inhibition of [3H]PK11195 (2 nM) binding; crude mitochondria fraction from rat cerebral cortex; 4° C., 90 minutes
Procedure: Experiment [MDR Receptor Binding Assay]
Crude mitochondria fractions prepared from rat cerebral cortex were used as a receptor sample, and [^3H]PK11195 was used as a [^3H]-labeled ligand.
A binding assay using the [^3H]-labeled ligand was carried out according to the following method as described in Journal of Pharmacology and Experimental Therapeutics, 262, 971(1992).
Preparation of Receptor Sample: Rat cerebral cortex was homogenized using a Teflon-coated homogenizer in a 10 mM HEPES buffer (pH 7.4) containing 0.32 M sucrose in ten volumes of the wet weight. The homogenate was centrifuged at 900×g for 10 minutes, and the resulting supernatant was centrifuged at 9,000×g for 10 minutes. The precipitate was suspended in a HEPES buffer to give a protein concentration of 1 mg/ml, and centrifuged at 12,000×g for 10 minutes. The resulting precipitate was suspended in a 50 mM HEPES buffer (pH 7.4) to give a crude mitochondria fraction.
MDR Binding Assay: Mitochondria sample (1.0 mg protein/ml), [^3H]PK11195 (2 nM) and the test drug were reacted at 4° C. for 90 minutes. After completion of the reaction, the reaction mixture was filtered with suction through a glass filter (GF/B) treated with 0.3% polyethyleneimine, and the radioactivity on the filter was measured by a liquid scintillation spectrometer.
The binding at the reaction in the presence of 10 μM PK11195 was defined as non-specific binding of [3H]PK11195, and the difference between total binding and non-specific binding was defined as specific binding.

IC50 [pM] | Compound
123 | COc1ccccc1CN(C(C)=O)c1ccccc1Oc1ccc(C)cc1 [Compound 102]
722 | COc1ccccc1CN(C(C)=O)c1ccccc1Oc1ccccc1OC [Compound 103]
343 | COc1cccc(Oc2ccccc2N(Cc2ccccc2OC)C(C)=O)c1 [Compound 104]
163 | COc1ccc(Oc2ccccc2N(Cc2ccccc2OC)C(C)=O)cc1 [Compound 105]
413 | COc1ccccc1CN(C(C)=O)c1ccccc1Oc1cccc(F)c1 [Compound 108]
285 | COc1ccccc1CN(C(C)=O)c1ccccc1Oc1ccc(F)cc1 [Compound 109]
8900 | COc1ccccc1CN(C(C)=O)c1ccccc1Oc1ccc(Cl)cc1 [Compound 110]
376 | COc1ccccc1CN(C(C)=O)c1ccccc1Oc1ccc(F)cc1F [Compound 112]
343 | COc1ccccc1CN(C(C)=O)c1ccc(F)cc1Oc1ccccc1 [Compound 116]
792 | COc1ccccc1CN(C(C)=O)c1cc(F)ccc1Oc1ccccc1 [Compound 117]
498 | COc1ccccc1CN(C(C)=O)c1c(F)cccc1Oc1ccccc1 [Compound 118]
196 | COc1ccccc1CN(C(C)=O)c1ccc(Cl)cc1Oc1ccccc1 [Compound 120]
2010 | COc1ccccc1CN(C(C)=O)c1cc(Cl)ccc1Oc1ccccc1 [Compound 121]
343 | COc1ccccc1CN(C(C)=O)c1cc(C)ccc1Oc1ccccc1 [Compound 124]
8110 | COc1ccc(Oc2ccccc2)c(N(Cc2ccccc2OC)C(C)=O)c1 [Compound 126]
3510 | COc1ccccc1CN(C(C)=O)c1ccc(Oc2ccccc2)cc1Oc1ccccc1 [Compound 127]
